The conditions of data set [1]: in vivo; cited from earlier work.
The conditions of data set [2]: in humans; cited from earlier work.
Data set [3] deals with ligated hind limb (unilateral hind limb ischemia). The data set can be described thus: Blood perfusion by laser Doppler imaging in rat unilateral hind limb ischemia model of PAD. Format: in vivo, Sprague-Dawley (SD) rats. To be noted: SD rats; for blood perfusion in ligated limbs (laser Doppler imaging): hind limb ischemia, CLC-1011 3.6 mg/day by osmotic pump, Cilostazol 100 mg/kg bi-daily orally, over 21 days (FIG. 1). The procedure: (§1) The animals were held in the Open Animal Facility at the Department of Physiology, University of Zurich and used after a suitable period allowing the animals to adapt to the new environment. A unilateral hind limb ischemia was created in the SD rats by surgical intervention, whereby the right hind limb was ligated and the vessels excised as described in Vasc. Pharmacol., 2009, 51(4):268-74. The animals were then randomly assigned to receive either Cilostazol alone (100 mg/kg/bi-daily orally by gavage), CLC-1011 (3.6 mg/day by mini-osmotic pump, e.g. Model #2004, Alzet Inc.) alone, a combination of Cilostazol (100 mg/kg/bi-daily) and CLC-1011 (3.6 mg/day by mini-osmotic pump), or placebo for a total duration of 2 or 4 weeks.
(§2) During the treatment intervals, animals were scanned using laser Doppler imaging every third day post-operation to estimate the blood perfusion in ligated limbs. Blood flow was measured using a laser Doppler imager (Moor, Axminster, UK) and analyzed with the MoorLDI™ Image Review V51 software. The animals were placed on a heating pad in order to maintain constant body temperature during the entire procedure. At the end of the 2 and 4 weeks interval, animals were sacrificed and muscles were isolated and prepared for histological analysis.

For data set [4], the system named is adductor muscle of hypoxic limb. Nature of the data set: Histological analysis of muscles (new vessels, capillary and arteriole density), rat hind limb ischemia. The data set is classed as in vivo, Sprague-Dawley (SD) rats. The conditions noted are these: SD rats; for number of arterioles in isolated muscles (arterioles density/mm^2): at 4 weeks, compared to Cilostazol- and placebo-treated animals (FIG. 5). As to the method: as §1, §2

Data set [5] concerns arterioles of adductor muscle. Nature of the data set: Vascular remodelling, histopathological analysis of isolated adductor muscle. The data set is classed as in vivo. To be noted: SD rats, compared to Cilostazol and placebo (FIG. 7). As to the method: In order to assess possible effects the different treatments have on vascular remodelling, histopathological analysis of isolated adductor muscle was performed and the vascular luminal- and vascular wall-properties were addressed. […] See FIG. 7 showing in the left panel the arteriolar wall area/luminar ratio in the four treatment arms.

A further data set deals with platelets. Nature of the data set: Platelet activation by mean fluorescence intensity in platelets isolated from treatment groups. Format: in vivo. To be noted: platelets from treated rats; resting state (FIG. 8). As to the method:
Platelet activation was determined using mean fluorescence measurements.

Data set [6] deals with stromal cell-derived factor 1 (SDF-1). The data set can be described thus: Circulating SDF-1 levels in serum by ELISA. Format: in vivo. The conditions noted are these: rats; serum at day 6 post-ischemia; ELISA (FIG. 9). The procedure: The stromal cell-derived factor 1 (SDF-1) is a circulating proangiogenic cytokine, which plays an important role in angiogenesis. Serum of rats from 4 treatment arms was collected at day 6 post-ischemia. SDF-1 levels were determined by ELISA using methods known in the art.

For another data set, the system named is ischemic hind limb. The data set can be described thus: Blood flow by laser Doppler imaging in diabetic mice with hind limb ischemia. Format: in vivo, diabetic mouse (Bks.Cg+Lepr<db>/+Lepr<db>/OlaHsd). The conditions noted are these: for blood perfusion (laser Doppler imaging): diabetic mice with hind limb ischemia (FIG. 10a). The procedure: Blood flow was measured by laser Doppler imaging in diabetic mice with hind limb ischemic after treatment with CLC-1011 alone or in a combination with Cilostazol.

The test system of a further data set is adductor muscles. The data set can be described thus: Immunohistochemical analysis of adductor muscles (capillary density), diabetic mice. The data set is classed as in vivo, diabetic mouse (Bks.Cg+Lepr<db>/+Lepr<db>/OlaHsd). The conditions noted are these: normalized by number of myocytes (FIG. 11a, 11b).
The test system of data set [7] is arterioles of adductor muscle. Nature of the data set: Arterioles density by alpha-SMA immunohistology, diabetic mice. The data set is classed as in vivo, diabetic mouse (Bks.Cg+Lepr<db>/+Lepr<db>/OlaHsd). The conditions noted are these: alpha-SMA immunohistology (FIG. 12). The procedure:
Immunohistology for the alpha-smooth muscle (α-SMA) antigen was employed to highlight the vascular structures within the muscles and allow accurate counting of arterioles. Briefly, sections were deparaffinised in xylene (2×5 min) and rehydrated in decreasing concentrations of ethanol (2×3 min washes in 100% ethanol, followed by 1×3 min wash in 96% ethanol). Sections were washed twice with Tris-buffered saline (TBS, 0.1 M Tris- HCl with 0.9% NaCl, pH 7.4) and incubated for 1 h at room temperature (RT) with the primary antisera (M0851, Dako, Baar, Switzerland), without pretreatment. A detection kit containing the secondary antibody and diaminobenzidine tetrahydrochloride (DAB) as chromogen was subsequently applied according to the manufacturer's protocols
(Peroxidase/DAB plus Mouse Kit; DAKO). Sections were then washed 3 times in TBS and once in distilled water and counterstained for 1 min with haematoxylin, followed by rinsing for 5 min in tap water and dehydration in ascending alcohols, clearing in xylene, coverslipping and mounting. Arterioles density was quantified in histological sections of the adductor muscle. Results were expressed as number of arterioles/mm^2 of tissue.

For another data set, the system named is arterioles. The data set can be described thus: Arteriolar remodeling response to ischemia (wall and luminal area), diabetic mice. Format: in vivo, diabetic mouse (Bks.Cg+Lepr<db>/+Lepr<db>/OlaHsd). The conditions noted are these: arterioles (FIG. 13). The procedure: These findings corroborate with the remodeling effect of CLC-1011 seen at the vascular wall. To check the arteriolar remodeling response to the ischemia, immunohistochemistry was performed as described above. The remodeling consists in the wall area per luminal area ratio. The measurement of wall and luminal areas and diameter calculation of arterioles was performed in an equal random area for each histological sample. The results shown in FIG. 13a; FIG. 13b and FIG. 13c indicate that the luminal area of the vessels increased in the CLC-1011-treated animals, but not in the Cilostazol- or the placebo-treated animals. Of note, the results indicated no change in the wall area size in either of the groups.

The subject of data set [8] is endothelial progenitor cells. The data set can be described thus: Mobilization of putative stem cells into peripheral blood by flow cytometry, diabetic mice. The data set is classed as in vivo, diabetic mouse (Bks.Cg+Lepr<db>/+Lepr<db>/OlaHsd). As to the method:
Mobilization of putative stern cells from bone marrow into the peripheral blood in the placebo and treated groups mice 7 days after surgery was assessed by flow cytometry in whole blood. The cells were identified using a combination of antibodies that binds to the specific cell surface markers typical for potential angiogenic stem cells.

[9] abbreviates: whole blood flow cytometry, 7 days after surgery (FIG. 14).

“Also recorded” adds a separate entry of the source.

Take `NCCO[N+](=O)[O-]` [AEN, 2-aminoethyl nitrate]: the half-live entry in data set [1] was “approx. 2 hours”. For the same molecule, the nitrate tolerance result in data set [2] is reported as “does not provoke nitrate tolerance”.

Regarding `NCCO[N+](=O)[O-]` [CLC-1011, 2-aminoethyl nitrate], the “blood perfusion in ligated limbs (laser Doppler imaging)” value in [3] was “increase in blood perfusion”. For the same molecule, the “time up to which the increase in blood perfusion can be detected” value in data set [3] (ligated hind limb normalized to contralateral limb (FIG. 6)) is “up to 3 weeks”. Also, in data set [4] (after 2 and 4 weeks of treatment, 28 days after surgery (FIG. 4)), the “angiogenesis / capillary density in the adductor muscle” value is listed as “significant arteriogenic effects; also recorded: angiogenesis has been stimulated”. Also, the “number of arterioles in isolated muscles (arterioles density/mm^2)” value in [4] was “significant arteriogenic effects”; in data set [4] (listed as CL-1011), “significantly contributes to an increase of the number of arterioles”. Besides, the “formation of new blood vessels in hypoxic limb tissue” value in data set [4] (tissue sections (FIG. 3)) is given as “clear increase in the formation of new blood vessels”. In addition, the “luminal area of the vessels” value is “significantly increases luminal area” in data set [5] and “increased” in the data set with arterioles. In addition, the “platelet activation (mean fluorescence intensity)” value in the data set on platelets is given as “significantly prevents activation of platelets in resting state”. Besides, the “circulating SDF-1 levels in serum” value in [6] is “induced the release of the circulating SDF-1”. For the same molecule, the “blood perfusion (laser Doppler imaging)” value in the data set with ischemic hind limb is “increase in the blood perfusion; also recorded: increased blood perfusion”. Also, the “area under the curve of blood flow” value with ischemic hind limb (diabetic mice with hind limb ischemia (FIG. 10b)) is recorded as “increase of the area under the curve”. Moreover, in the data set on adductor muscles, the “capillary density in adductor muscles” value was “increase of the capillary density”. Moreover, in data set [7], the “arterioles density in the hind limb” value was “increase of the arterioles”. In addition, the “recruitment of the endothelial progenitor cells” value in data set [8] (peripheral blood 7 days after surgery) is “enhances the recruitment of the endothelial progenitor cells”. The “number of potential endothelial progenitor cells positive for VEGFR2” value in data set [8] (setting [9]) is given as “increase in the number of potential endothelial progenitor cells”. The “number of potential endothelial progenitor cells positive for stem cell antigen 1 (Sca-1)” value in data set [8] (setting [9]) is “increase in the number of potential endothelial progenitor cells”.

With `O=C1CCc2cc(OCCCCc3nnnn3C3CCCCC3)ccc2N1` [Cilostazol, reference compound], the “blood perfusion in ligated limbs (laser Doppler imaging)” value in [3] is “no effect in blood flow”. In addition, the “luminal area of the vessels” value in [5] is on record as “such effect is absent”; in the data set on arterioles it was “not”. Also, in the data set with platelets, the “platelet activation (mean fluorescence intensity)” value is “no effect in prevention of platelet activation and aggregation”. For the same molecule, the “blood perfusion (laser Doppler imaging)” value with ischemic hind limb is on record as “remains unchanged”. The “arterioles density in the hind limb” value in [7] is “no change”.

Source of the values: patent US20180036259A1, “NO DONORS FOR THE TREATMENT OF IMPAIRED TISSUE PERFUSION” (MIRANDAPHARMACEUTICALS AG, priority 2015, published 2018).
